Data reported in patent US11633355B2, “Multi-functional particles and methods of using the same” (Clemson University Research Foundation, priority 2014, dated 2023).

What was measured:
[1] = Sirolimus and heparin loading in PgP micelles; format: physicochemical; settings: 0.45 μm filter
Procedure: 50 μl Hep-F (20 mg/ml) was added into PgP solution, followed by two more hours stirring. Methanol was allowed to evaporate overnight, and the solution was centrifuged at 15,000×RCF for 15 minutes. Supernatant containing unbound Hep-F was removed and the precipitated nanoparticle was collected, resuspended and then filtered using 0.45 μm sterile syringe filter to remove unloaded SR. The amount of Hep-F binding to PgP was measured using Hep-F standard curve. Fluorescence was measured using a microplate reader (Excitation: 494 nm Emission: 521 nm, Biotek, VT, USA). Loading efficiency for Hep was calculated as % loading efficiency=(amount of Hep bound to PgP/amount of Hep added to PgP)×100.
Sr-PgP-Hep was prepared sequential loading of SR and Hep in PgP. Briefly, SR solution (LC labs, USA) was loaded in the PgP using solvent evaporation method and Hep was added into SR-PgP solution. […] The amount of SR loaded in PgP micelles solution was measured by High Pressure Liquid Chromatography (HPLC) (Waters Corporation, USA) using SR standard curve prepared in acetonitrile (ACN). […] The loading efficiency was calculated as: % loading efficiency=amount of SR loaded/amount of SR added ×100. The amount of Hep bound to PgP was determined based on Hep-F loading as described above.

[2] = system: rat primary cerebellar neurons (CBN); assay: Neurite length of cerebellar neurons in in vitro hypoxia condition; format: cell-based; settings: hypoxia 24 hours, then treatment for additional 24 hrs
Procedure: To generate hypoxia condition as a SCI model in vitro, rat primary cerebellar neurons (CBN) were isolated from P3 pubs and plated on the PLL/Laminin coated well plate. After 3 days culture, the cells were incubated in hypoxia gas chamber (95% N2 and 5% 02) for 24 hours and then the cells were treated with Rm-PgP and PgP without rolipram. Cells treated with free rolipram dissolved in DMSO were used as a positive control and cells maintained under normal atmospheric conditions were used as a negative control. The cells were incubated an additional 24 hrs in hypoxia condition and then fixed for neurite length evaluation. The neurite lengths were measured using ImageJ software program after β-3 tubulin staining.

Structure (SMILES)	SR added in water without PgP, detection by HPLC after filtration [1]	neurite length compared with normoxia [2]
CO[C@H]1C[C@@H]2CC[C@@H](C)[C@@](O)(O2)C(=O)C(=O)N2CCCC[C@H]2C(=O)O[C@H]([C@H](C)C[C@@H]2CC[C@@H](O)[C@H](OC)C2)CC(=O)[C@H](C)/C=C(\C)[C@@H](O)[C@@H](OC)C(=O)[C@H](C)C[C@H](C)/C=C/C=C/C=C/1C [sirolimus]	not detected	–
COc1ccc(C2CNC(=O)C2)cc1OC1CCCC1 (centres unmarked) [free Rm, rolipram]	–	not significantly different
